Among the data in article PMC5761851, “Application of a phenotypic drug discovery strategy to identify biological and chemical starting points for inhibition of TSLP production in lung epithelial cells” (PLoS ONE, 2018) are remaining activity and inhibition values, retold here.

Assay in all cases: kinase selectivity panel
What all share (format): biochemical

One assay concerns the target T1, ASK1 (Homo sapiens, UniProt Q99683).
T1 construct: purchased Eurofins Pharma Discovery Services (KinaseProfiler; Cerep BioPrint panel)
T1 sequence (Q99683 1-1374): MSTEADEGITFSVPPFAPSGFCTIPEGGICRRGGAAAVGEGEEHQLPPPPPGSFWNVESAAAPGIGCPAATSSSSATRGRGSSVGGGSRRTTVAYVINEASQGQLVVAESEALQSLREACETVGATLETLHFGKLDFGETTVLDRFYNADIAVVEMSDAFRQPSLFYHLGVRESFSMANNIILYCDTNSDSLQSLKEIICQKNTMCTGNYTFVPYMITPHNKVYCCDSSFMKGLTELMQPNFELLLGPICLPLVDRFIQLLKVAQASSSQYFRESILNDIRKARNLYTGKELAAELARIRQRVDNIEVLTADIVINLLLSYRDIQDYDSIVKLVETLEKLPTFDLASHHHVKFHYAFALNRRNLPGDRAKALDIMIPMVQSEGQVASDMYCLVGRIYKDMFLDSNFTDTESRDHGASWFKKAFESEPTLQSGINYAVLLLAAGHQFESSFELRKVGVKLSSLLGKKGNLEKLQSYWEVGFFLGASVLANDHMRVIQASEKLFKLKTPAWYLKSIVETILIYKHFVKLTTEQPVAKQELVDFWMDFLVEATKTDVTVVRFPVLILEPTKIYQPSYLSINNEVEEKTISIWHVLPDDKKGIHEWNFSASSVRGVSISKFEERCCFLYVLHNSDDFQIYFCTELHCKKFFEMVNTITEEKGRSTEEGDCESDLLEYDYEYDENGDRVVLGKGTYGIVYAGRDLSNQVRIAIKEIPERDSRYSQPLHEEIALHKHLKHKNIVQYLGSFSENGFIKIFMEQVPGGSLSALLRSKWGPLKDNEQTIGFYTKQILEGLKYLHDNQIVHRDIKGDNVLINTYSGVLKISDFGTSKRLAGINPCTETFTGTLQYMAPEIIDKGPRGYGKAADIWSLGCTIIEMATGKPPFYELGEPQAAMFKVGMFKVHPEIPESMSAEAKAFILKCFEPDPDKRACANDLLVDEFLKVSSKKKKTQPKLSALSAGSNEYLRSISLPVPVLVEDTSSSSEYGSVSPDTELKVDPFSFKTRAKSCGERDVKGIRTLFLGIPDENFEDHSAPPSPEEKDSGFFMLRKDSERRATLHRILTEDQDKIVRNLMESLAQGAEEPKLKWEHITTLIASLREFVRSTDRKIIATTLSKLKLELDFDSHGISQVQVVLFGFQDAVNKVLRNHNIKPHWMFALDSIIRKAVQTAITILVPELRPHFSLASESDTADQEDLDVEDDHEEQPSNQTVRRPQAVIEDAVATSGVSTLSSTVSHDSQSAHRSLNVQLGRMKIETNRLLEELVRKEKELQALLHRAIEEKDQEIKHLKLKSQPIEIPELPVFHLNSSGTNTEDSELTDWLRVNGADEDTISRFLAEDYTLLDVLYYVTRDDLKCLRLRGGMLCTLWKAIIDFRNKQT
The note with it: read-out: percentage of control activity (POC), ASK1. Put shortly:
(§1)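 IC50 values derive from 9 duplicate concentrations, run only for activities picked after an initial 10 μM duplicate screen across 125 representative kinases.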

The target in another assay is T2, Abl (Homo sapiens, UniProt P00519).
T2 construct: purchased Eurofins Pharma Discovery Services (KinaseProfiler; Cerep BioPrint panel)
The note with it: read-out: percentage of control activity (POC), Abl. Put shortly: as §1

The target of a further assay is T3, CK1γ1 (Homo sapiens, UniProt Q9HCP0).
T3 construct: purchased Eurofins Pharma Discovery Services (KinaseProfiler; Cerep BioPrint panel)
The following applies: read-out: percentage of control activity (POC), CK1γ1. In a few lines: as §1

Another assay concerns the target T4, CK1δ (Homo sapiens, UniProt P48730).
T4 construct: purchased Eurofins Pharma Discovery Services (KinaseProfiler; Cerep BioPrint panel)
The following applies: read-out: percentage of control activity (POC), CK1δ. Put shortly:
as §1

The target in another assay is T5, Fgr (Homo sapiens, UniProt P09769).
T5 construct: purchased Eurofins Pharma Discovery Services (KinaseProfiler; Cerep BioPrint panel)
The note with it: read-out: percentage of control activity (POC), Fgr. Put shortly:
as §1

The next assay concerns the target T6, JAK1 (Homo sapiens, UniProt P23458).
T6 construct: purchased Eurofins Pharma Discovery Services (KinaseProfiler; Cerep BioPrint panel)
The note with it: read-out: percentage of control activity (POC), JAK1. Put shortly:
as §1

The target in another assay is T7, PI3K (p110a/p85a) (Homo sapiens, UniProt P42336).
T7 construct: purchased Eurofins Pharma Discovery Services (KinaseProfiler; Cerep BioPrint panel)
The note with it: read-out: percentage of control activity (POC), PI3K (p110a/p85a). Put shortly: as §1

Another assay deals with T8, PKA (Homo sapiens, UniProt P17612).
T8 construct: purchased Eurofins Pharma Discovery Services (KinaseProfiler; Cerep BioPrint panel)
The note with it: read-out: percentage of control activity (POC), PKA. Put shortly:
as §1

The next assay deals with T9, SGK (Homo sapiens, UniProt O00141).
T9 construct: purchased Eurofins Pharma Discovery Services (KinaseProfiler; Cerep BioPrint panel)
T9 sequence (O00141 1-431): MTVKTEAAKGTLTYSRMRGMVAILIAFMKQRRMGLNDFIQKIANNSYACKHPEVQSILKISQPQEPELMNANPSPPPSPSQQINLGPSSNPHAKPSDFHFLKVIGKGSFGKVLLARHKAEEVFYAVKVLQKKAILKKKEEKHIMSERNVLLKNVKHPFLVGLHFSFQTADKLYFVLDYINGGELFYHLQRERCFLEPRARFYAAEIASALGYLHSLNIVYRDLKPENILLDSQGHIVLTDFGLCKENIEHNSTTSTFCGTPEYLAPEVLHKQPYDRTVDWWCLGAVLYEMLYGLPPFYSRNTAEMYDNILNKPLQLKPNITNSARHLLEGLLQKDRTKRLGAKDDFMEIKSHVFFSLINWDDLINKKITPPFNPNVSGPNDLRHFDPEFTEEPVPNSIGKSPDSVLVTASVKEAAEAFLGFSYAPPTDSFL
The note with it: read-out: percentage of control activity (POC), SGK. Put shortly:
as §1

In a further assay the target is T10, TrkB (Homo sapiens, UniProt Q16620).
T10 construct: purchased Eurofins Pharma Discovery Services (KinaseProfiler; Cerep BioPrint panel)
The note with it: for remaining activity at 10 µM: read-out: percentage of control activity (POC), TrkB. Put shortly:
as §1

T4 sequence (P48730 whole entry): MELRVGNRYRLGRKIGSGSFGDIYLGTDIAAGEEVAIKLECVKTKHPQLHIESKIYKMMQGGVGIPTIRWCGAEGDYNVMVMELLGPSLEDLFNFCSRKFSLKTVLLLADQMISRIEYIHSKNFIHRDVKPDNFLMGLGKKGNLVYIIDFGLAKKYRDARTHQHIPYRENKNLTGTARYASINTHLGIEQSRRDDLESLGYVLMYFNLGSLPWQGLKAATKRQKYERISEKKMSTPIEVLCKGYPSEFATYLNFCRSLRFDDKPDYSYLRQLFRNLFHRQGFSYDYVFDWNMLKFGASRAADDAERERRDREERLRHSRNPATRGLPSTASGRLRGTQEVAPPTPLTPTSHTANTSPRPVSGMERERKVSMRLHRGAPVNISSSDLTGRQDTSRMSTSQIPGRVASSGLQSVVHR
T5 sequence (P09769 whole entry): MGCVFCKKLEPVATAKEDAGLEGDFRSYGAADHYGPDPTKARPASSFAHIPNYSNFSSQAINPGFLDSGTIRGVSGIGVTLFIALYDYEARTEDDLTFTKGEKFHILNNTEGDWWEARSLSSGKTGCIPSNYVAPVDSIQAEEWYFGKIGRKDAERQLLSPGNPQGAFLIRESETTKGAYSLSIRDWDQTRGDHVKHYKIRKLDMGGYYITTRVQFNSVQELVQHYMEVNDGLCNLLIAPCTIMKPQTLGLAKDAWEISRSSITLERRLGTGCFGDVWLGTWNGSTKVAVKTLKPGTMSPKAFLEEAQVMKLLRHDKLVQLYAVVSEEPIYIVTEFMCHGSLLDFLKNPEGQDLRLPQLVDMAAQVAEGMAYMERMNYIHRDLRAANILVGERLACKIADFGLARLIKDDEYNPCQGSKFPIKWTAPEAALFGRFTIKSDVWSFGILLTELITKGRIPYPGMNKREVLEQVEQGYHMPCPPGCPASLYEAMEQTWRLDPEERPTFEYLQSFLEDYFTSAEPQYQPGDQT
T7 sequence (P42336 whole entry): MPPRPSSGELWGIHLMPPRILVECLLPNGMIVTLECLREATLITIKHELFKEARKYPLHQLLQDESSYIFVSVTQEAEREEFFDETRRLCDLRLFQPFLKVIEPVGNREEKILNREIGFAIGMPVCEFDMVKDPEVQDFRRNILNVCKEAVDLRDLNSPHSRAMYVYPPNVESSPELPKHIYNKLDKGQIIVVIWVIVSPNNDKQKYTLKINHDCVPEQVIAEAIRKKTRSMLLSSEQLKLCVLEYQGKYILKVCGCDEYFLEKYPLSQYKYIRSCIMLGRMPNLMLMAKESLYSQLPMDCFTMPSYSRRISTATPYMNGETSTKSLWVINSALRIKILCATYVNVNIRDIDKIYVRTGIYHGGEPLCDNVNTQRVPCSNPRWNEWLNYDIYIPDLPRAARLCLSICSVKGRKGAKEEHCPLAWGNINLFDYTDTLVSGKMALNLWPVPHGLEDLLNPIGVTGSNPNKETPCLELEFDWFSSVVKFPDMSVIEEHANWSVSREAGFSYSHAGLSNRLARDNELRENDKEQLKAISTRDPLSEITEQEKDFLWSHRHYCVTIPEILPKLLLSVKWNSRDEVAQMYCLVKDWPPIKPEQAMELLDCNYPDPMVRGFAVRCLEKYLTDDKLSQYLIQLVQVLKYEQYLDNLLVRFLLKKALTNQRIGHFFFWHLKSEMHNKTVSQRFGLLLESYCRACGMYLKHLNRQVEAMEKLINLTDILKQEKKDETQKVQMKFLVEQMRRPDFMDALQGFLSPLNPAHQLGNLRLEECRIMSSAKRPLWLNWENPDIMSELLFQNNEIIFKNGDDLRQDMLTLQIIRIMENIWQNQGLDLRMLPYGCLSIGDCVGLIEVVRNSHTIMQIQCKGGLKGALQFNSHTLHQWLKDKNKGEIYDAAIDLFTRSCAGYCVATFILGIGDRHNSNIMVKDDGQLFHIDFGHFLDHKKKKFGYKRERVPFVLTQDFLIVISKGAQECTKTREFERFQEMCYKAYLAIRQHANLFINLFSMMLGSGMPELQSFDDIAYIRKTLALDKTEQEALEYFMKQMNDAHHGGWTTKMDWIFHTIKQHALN
T7 sequence (P27986 whole entry partner): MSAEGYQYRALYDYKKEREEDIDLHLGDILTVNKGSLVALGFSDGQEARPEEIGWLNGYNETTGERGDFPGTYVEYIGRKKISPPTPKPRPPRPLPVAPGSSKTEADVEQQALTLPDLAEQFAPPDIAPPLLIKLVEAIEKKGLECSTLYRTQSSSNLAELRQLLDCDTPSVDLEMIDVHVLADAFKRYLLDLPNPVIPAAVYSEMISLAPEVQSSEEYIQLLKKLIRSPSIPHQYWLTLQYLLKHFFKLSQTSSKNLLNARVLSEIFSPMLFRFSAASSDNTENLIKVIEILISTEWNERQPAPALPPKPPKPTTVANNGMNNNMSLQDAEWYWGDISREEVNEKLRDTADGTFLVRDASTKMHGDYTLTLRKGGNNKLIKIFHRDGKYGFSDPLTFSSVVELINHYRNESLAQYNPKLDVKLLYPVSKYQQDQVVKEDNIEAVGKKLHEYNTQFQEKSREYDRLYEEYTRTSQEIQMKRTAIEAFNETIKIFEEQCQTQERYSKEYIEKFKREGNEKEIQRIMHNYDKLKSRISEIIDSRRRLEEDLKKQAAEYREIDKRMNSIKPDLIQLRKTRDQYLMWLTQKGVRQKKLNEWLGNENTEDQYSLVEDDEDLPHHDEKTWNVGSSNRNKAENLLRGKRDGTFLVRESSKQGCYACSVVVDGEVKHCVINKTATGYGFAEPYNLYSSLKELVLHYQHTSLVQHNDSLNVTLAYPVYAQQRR
T3 sequence (Q9HCP0 whole entry): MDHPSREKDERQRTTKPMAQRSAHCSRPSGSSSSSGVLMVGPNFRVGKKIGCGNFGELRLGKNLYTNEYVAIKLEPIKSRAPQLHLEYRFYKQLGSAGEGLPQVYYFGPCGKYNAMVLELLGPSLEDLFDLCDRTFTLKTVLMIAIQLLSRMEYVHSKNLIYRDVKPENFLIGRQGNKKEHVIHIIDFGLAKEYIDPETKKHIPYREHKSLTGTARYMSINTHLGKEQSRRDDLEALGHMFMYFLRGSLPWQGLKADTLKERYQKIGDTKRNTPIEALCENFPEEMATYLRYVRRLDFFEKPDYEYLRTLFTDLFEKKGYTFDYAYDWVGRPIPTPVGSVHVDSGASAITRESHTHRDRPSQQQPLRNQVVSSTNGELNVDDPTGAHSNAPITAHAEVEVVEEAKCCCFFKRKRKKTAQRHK
T2 sequence (P00519 whole entry): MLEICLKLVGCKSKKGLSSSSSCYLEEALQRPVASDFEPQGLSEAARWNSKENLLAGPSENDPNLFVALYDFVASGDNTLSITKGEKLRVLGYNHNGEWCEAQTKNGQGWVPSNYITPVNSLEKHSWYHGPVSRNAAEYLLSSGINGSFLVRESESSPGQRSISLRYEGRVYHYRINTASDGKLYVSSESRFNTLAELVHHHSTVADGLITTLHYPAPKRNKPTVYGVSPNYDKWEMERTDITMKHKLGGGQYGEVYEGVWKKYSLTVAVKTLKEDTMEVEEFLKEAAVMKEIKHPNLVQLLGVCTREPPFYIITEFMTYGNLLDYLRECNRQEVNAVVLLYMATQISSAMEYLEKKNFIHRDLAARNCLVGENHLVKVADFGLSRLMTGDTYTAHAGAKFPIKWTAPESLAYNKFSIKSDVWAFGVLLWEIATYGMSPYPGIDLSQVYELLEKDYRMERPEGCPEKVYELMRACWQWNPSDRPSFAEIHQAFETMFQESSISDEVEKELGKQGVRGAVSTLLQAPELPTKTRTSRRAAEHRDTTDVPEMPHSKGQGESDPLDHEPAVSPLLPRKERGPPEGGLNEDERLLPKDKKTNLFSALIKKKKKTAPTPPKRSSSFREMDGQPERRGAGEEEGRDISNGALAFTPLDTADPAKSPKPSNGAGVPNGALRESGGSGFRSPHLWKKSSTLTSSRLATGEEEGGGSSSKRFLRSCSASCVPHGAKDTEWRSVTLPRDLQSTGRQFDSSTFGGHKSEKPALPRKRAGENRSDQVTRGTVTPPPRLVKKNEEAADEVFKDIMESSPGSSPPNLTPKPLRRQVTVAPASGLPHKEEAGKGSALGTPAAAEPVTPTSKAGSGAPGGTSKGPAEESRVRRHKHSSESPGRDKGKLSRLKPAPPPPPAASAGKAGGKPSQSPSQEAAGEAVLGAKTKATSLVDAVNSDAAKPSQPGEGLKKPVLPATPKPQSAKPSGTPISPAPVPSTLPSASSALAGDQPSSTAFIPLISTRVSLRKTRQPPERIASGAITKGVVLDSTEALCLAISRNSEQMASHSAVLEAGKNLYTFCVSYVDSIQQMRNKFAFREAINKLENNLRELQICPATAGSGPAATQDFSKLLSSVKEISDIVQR

Consider `Cn1cc(-c2cccc(-c3nc(C(=O)NC4C5CC6CC4CC(O)(C6)C5)c(N)nc3N)c2)cn1` (stereo not drawn) [compound 4], for which the remaining activity at 10 µM came out at 92% at ASK1; 66% on Abl; 89% on CK1γ1; 50% at CK1δ; 67% on Fgr; 86% at JAK1. For the same compound, the remaining activity at 10 µM at PI3K (p110a/p85a) turned out to be 60%; at PKA, 100%; at SGK, 96%; on TrkB, 57%.
As to `COc1c(NC(=O)c2ccc(C)c(-c3nnc4c(NCC(C)(C)C)nccn34)c2)cc(C(C)(C)C)cc1NS(C)(=O)=O` [compound 7, reference compound], the remaining activity at 10 µM is 87% on ASK1; 50% at Abl; 98% on CK1γ1; 111% on CK1δ; 98% at Fgr; 101% on JAK1. Further, the remaining activity at 10 µM on PI3K (p110a/p85a) amounted to 95%; on PKA, 109%; at SGK it was 114%; at TrkB it was 84%.
For the compound `Cc1ccc(C(=O)NCC2CC2)cc1-c1ccc2c(c1)NC(=O)C21CCCC1` [compound 3], the remaining activity at 10 µM stood at 97% on ASK1; 96% on Abl; 98% at CK1γ1; 100% on CK1δ; 93% on Fgr; 93% on JAK1. For the same compound, the remaining activity at 10 µM at PI3K (p110a/p85a) was determined as 94%; on PKA, 99%; on SGK it was 99%; on TrkB, 96%.
With `CC(C)(C)N1CCC(c2cc(-c3ccc(F)cc3Cl)c3cc[n+]([O-])c(-c4c(Cl)cccc4Cl)c3n2)CC1` [compound 2], the remaining activity at 10 µM at ASK1 was determined as 100%; at Abl, 104%; on CK1γ1 it was 101%; on CK1δ it was 110%; on Fgr, 99%; at JAK1, 91%. The remaining activity at 10 µM at PI3K (p110a/p85a) was found to be 97%; at PKA it was 109%; on SGK, 105%; at TrkB, 25%. Moreover, the inhibition (as a rule, how much of the control response was suppressed) at 10 µM against TrkB was determined as 75%.
For `CS(=O)(=O)N1CCN(c2ccc(Nc3ncc(C(N)=O)c(NC4CC4)n3)cc2)CC1` [compound 5], the remaining activity at 10 µM on ASK1 is 0%; at Abl, 2%; at CK1γ1, 25%; at CK1δ it was 23%; at Fgr, 5%; at JAK1 it was -2%. For the same compound, the remaining activity at 10 µM at PI3K (p110a/p85a) worked out at 96%; at PKA it was 26%; on SGK it was 64%; at TrkB, 3%.
